Measured values published in PMC8464850, “Sulfonium Ligands of the α7 nAChR” (Molecules, 2021).

What was measured:
Type in all cases: cell-based
α4(3)β2(2) = biological target: T1, α4(3)β2(2) (Homo sapiens, UniProt P17787+P43681); experiment: Activation of heteromeric nAChR by S1: α4(3)β2(2)
T1 construct: expressed in transfected cells; host or cells: Xenopus laevis oocytes (injected RNA)
Text: (§1) Concatamers were used in order to obtain heteromeric receptors with known subunit composition. The β2-6-α4 concatamer was co-expressed with monomeric α4, β2, or α5 to obtain receptors with the composition α4(3)β2(2), α4(2)β2(3), or α4(2)β2(2)α5, respectively. A concatamer of five linked subunits was used to obtain the β3α4 β2α6β2 receptors. The α3β4 receptors were formed from the co-expression of α3 and β4 subunit monomers at equal ratios. Note that the data were initially measured relative to internal ACh control responses for each oocyte (Methods). Responses were subsequently adjusted for the relative values of the ACh controls and the ACh maximum responses for each of the various subtypes, determined in previous experiments.
(§2) Figure 6 Activation of heteromeric neuronal nAChR by S1. […] Data are the average peak currents (n = 6–8 oocytes ± SEM), measured relative to initial ACh control responses for each oocyte (concentrations listed in Methods). Responses were subsequently adjusted for the relative values of the ACh controls and the ACh maximum responses for each of the various subtypes, determined in previous experiments. […]
(§3) Solutions were applied from 96-well plates via disposable tips. […] The responses were calculated as both peak current amplitudes and net charge, as previously described. […] Multi-cell averages were calculated for comparisons of complex responses. […]

α4β2α5 = biological target: T2, α4β2α5 (Homo sapiens, UniProt P17787+P43681); experiment: Activation of heteromeric nAChR by S1: α4(2)β2(2)α5
T2 construct: expressed in transfected cells; host or cells: Xenopus laevis oocytes (injected RNA)
Text: as §1, §2, §3

[1] = biological target: T3, muscle-type (α1β1εδ) receptors (Mus musculus, UniProt P02716+P04756+P20782); experiment: Activation of muscle-type receptors; conditions: not shown
T3 construct: expressed in transfected cells; host or cells: Xenopus laevis oocytes (injected RNA)
Text: The human nAChR clones were obtained from Jon Lindstrom (University of Pennsylvania, Philadelphia, PA, USA). Mouse muscle subunit clones were obtained from Jim Boulter (Salk Institute, La Jolla, CA, USA) and Paul Gardner (Dartmouth, Hanover, NH, USA). The human resistance-to-cholinesterase 3 (RIC3) clone was obtained from Millet Treinin (Hebrew University, Jerusalem, Israel) and co-injected with α7 to improve the level and speed of α7 receptor expression without affecting the pharmacological properties of the receptors. Subsequent to linearization and purification of the plasmid DNAs, RNAs were prepared using the mMessage mMachine in vitro RNA transcription kit (Ambion, Austin, TX, USA).
Experiments were conducted using OpusXpress 6000A (Molecular Devices, Union City, CA, USA). […]
(§4) Solutions were applied from 96-well plates via disposable tips. […] The responses were calculated as both peak current amplitudes and net charge, as previously described. Data were collected at 50 Hz, filtered at 20 Hz for α7 receptors or filtered at 5 Hz for heteromeric nAChR, and analyzed by Clampfit (Molecular Devices, San Jose, CA, USA) and Excel (Microsoft, Redmond, WA, USA). Data were expressed as means ± SEM from at least four oocytes for each experiment and plotted with Kaleidagraph 4.5.2 (Abelbeck Software, Reading, PA, USA). Multi-cell averages were calculated for comparisons of complex responses. […]

[2] = biological target: T4, α4(2)β2(2)β2L15’M receptors (Homo sapiens, UniProt P17787+P43681, L280M); experiment: Silent agonism of the TQS-sensitive α4β2L15’M mutant receptor
T4 construct: expressed in transfected cells; host or cells: Xenopus laevis oocytes (injected RNA)
Description: We conducted a screen of the other sulfonium compounds on the α4β2L15’M receptors and identified at least two compounds that gave potentiated responses above our limit of detection indicated by the dotted line in Figure 8B.
Figure 8 Silent agonism of an α4β2 mutant receptor that is sensitive to the α7 PAM TQS. (A) The averaged raw data of responses of eight oocytes expressing the β2-6-α4 concatamer and the β2L15’M mutant to 100 µM of the sulfonium agonist S1, applied alone or co-applied with 30 µM racemic TQS. […] (B) Evaluation of the effects of the sulfonium compounds, applied alone at 100 µM or co-applied with 30 µM TQS to α4(2)β2(2)β2L15’M receptors. […]
as §4

[3] = peak currents relative to ACh maximum

T1 sequence (P17787 26-502): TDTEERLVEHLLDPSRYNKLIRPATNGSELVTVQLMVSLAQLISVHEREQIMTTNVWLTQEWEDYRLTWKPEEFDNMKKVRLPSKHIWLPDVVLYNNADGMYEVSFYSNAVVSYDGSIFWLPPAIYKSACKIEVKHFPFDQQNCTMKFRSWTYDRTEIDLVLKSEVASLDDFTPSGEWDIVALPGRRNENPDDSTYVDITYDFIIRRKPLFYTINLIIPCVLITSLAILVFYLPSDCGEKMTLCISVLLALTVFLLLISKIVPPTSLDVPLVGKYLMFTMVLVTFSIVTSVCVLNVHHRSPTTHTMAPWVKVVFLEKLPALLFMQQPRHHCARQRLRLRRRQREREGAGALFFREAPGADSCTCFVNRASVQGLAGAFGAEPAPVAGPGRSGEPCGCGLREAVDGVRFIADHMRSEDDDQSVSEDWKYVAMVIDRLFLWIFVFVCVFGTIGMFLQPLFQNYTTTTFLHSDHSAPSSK
T1 sequence (P43681 29-627 limits assumed): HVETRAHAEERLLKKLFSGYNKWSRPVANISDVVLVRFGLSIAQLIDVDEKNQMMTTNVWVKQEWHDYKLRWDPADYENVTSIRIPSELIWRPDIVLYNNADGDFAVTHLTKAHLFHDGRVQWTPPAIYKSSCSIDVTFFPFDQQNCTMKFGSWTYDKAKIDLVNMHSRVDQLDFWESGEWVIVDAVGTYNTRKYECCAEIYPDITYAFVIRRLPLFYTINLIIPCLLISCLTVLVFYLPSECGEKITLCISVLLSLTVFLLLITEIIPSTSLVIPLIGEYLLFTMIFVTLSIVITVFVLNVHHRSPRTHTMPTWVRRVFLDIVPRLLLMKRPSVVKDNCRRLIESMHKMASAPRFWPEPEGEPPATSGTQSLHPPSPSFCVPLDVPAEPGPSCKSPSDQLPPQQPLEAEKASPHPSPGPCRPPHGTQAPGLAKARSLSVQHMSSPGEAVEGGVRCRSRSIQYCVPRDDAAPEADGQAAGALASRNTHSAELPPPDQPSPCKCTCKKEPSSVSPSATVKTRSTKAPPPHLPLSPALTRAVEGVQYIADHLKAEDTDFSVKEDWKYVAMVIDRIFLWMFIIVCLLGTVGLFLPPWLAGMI
T1 sequence (P43681 29-627 limits assumed): as above
T4 sequence (P17787 26-502, stated change not applied): as the sequence (P17787 26-502) above
T4 sequence (P43681 27-627): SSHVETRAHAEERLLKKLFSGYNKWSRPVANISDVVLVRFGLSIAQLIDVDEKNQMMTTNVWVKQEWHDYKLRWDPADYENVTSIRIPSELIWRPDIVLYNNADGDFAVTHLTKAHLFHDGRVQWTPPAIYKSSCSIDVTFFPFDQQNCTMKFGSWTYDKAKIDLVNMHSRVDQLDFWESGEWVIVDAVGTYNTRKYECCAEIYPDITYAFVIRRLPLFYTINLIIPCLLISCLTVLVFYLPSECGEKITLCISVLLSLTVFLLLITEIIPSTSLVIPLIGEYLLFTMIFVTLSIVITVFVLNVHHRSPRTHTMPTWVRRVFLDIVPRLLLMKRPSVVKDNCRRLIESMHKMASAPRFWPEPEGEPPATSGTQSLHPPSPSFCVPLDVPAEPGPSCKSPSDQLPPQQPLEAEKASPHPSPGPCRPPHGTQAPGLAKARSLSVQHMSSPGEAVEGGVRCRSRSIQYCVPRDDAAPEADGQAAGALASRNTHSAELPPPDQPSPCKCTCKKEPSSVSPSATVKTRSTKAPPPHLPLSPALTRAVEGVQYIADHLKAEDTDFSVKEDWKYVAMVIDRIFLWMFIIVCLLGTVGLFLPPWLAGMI
T4 sequence (P17787 26-502 L280M): as the sequence (P17787 26-502) above, with L255M counted along it
T2 sequence (P17787 26-502): as the sequence (P17787 26-502) above
T2 sequence (P43681 29-627 limits assumed): as the sequence (P43681 29-627 limits assumed) above
T3 sequence (P04756 21-457): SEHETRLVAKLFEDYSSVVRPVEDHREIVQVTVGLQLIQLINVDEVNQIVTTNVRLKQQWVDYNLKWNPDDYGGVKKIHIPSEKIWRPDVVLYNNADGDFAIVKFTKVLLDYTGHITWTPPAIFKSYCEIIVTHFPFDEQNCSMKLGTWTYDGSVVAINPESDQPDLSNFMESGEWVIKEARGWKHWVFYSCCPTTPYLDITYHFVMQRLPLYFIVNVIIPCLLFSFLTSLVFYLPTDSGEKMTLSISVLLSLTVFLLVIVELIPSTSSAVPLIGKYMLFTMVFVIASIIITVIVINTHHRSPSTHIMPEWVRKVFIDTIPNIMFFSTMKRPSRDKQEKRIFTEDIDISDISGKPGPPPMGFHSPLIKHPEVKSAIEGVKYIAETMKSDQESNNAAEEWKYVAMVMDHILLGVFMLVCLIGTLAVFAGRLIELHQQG
T3 sequence (P09690 24-501 partner): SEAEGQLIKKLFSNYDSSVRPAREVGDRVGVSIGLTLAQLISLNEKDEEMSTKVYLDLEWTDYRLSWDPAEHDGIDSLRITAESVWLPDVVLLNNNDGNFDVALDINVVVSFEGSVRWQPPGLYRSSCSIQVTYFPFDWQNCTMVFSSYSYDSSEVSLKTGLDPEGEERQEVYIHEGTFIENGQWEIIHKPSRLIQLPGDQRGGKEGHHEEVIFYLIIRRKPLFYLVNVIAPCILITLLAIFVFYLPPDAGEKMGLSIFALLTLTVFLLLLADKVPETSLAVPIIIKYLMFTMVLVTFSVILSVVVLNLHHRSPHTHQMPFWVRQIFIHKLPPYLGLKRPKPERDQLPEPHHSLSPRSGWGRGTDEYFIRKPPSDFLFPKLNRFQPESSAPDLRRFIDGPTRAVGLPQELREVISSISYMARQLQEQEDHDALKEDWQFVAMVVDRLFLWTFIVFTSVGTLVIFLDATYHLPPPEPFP
T3 sequence (P20782 21-493): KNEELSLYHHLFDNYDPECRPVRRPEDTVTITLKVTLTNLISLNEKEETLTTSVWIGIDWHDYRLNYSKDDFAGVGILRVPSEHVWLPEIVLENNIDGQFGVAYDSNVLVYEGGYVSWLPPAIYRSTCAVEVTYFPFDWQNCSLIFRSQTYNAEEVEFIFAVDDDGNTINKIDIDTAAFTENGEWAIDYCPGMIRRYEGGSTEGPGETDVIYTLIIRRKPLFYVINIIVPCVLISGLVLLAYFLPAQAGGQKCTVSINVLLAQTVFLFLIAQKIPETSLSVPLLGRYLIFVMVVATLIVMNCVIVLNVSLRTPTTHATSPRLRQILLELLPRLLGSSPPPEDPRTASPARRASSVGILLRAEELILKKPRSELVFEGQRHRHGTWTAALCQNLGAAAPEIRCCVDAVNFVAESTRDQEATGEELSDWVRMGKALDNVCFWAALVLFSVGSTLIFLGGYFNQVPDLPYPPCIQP
T3 sequence (P02716 25-520): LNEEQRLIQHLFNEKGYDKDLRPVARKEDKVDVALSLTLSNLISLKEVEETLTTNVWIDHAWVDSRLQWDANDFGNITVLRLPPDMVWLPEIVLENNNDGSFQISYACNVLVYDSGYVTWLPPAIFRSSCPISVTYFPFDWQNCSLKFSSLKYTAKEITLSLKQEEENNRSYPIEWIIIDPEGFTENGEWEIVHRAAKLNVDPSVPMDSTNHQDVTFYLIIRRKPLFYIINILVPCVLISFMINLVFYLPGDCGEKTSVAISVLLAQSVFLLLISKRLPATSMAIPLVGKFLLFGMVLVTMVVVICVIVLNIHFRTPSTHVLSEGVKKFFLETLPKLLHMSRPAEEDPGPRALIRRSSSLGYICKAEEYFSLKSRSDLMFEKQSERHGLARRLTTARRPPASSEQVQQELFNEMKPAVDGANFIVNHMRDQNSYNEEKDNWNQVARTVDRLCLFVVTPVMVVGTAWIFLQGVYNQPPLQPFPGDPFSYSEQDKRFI

For `C[S+](C)C.[I-]` [Compound S1, trimethylsulfonium iodide], which “IMax (S1 Activation)” value (α4(3)β2(2); [3]) is on record?
Its value is 1.2 ± 0.2.

What about the EC50 (α4(3)β2(2); peak currents, unit inferred) of the same compound?
Its EC50 is 246 ± 104 µM.

What about the “IMax (S1 Activation)” value (α4β2α5; [3]) of the same compound?
The value was 0.50 ± 0.03.

What about the EC50 (α4β2α5; peak currents, unit inferred) of the same compound?
The EC50 was 114 ± 25 µM.

And the “activation of muscle-type receptors” value [1]?
The value was “not an effective activator”.

And the “activation of α4β2L15’M mutant receptors” value ([2]; 100 µM applied alone)?
The value was “activated the α4β2L15’M mutant receptors”.

What about the “response on co-application with TQS” value ([2]; 100 µM compound with 30 µM TQS, limit of detection 20 nA) of the same compound?
The value was “potentiated by TQS”.
